{
  "source": "patent US20230277569A1",
  "about": "“Compositions and Methods for Treating, Ameliorating and/or Preventing Cancer and Kits for the Same” (priority 2022, published 2023)",
  "key": {"[1]": {"molecular_target": "Human Kir2.1 (Homo sapiens, UniProt P63252)", "sequence (P63252 whole entry)": "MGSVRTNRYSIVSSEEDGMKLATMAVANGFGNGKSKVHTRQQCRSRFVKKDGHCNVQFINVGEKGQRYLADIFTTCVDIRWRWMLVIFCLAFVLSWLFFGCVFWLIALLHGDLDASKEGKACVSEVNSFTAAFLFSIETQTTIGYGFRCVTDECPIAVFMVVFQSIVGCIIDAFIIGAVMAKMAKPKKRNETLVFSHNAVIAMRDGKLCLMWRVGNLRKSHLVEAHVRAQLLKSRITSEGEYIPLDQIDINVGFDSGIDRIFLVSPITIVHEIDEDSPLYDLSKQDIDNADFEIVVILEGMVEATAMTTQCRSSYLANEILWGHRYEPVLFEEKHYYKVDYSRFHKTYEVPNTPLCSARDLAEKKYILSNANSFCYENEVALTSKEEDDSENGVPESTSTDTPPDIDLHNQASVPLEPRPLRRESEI", "assay": "Ion channel screening, Kir2.1", "format": "cell-based", "conditions": "n=15, pulse 10, read-out: inhibition of Kir2.1 currents", "text": "(§5) The parameter measured was the maximum outward current evoked on stepping to +60 mV from the holding potential of −80 mV. hERG currents were evoked by a three-pulse protocol where voltage was first stepped to +40 mV for two sec from a holding potential of −80 mV to inactivate hERG channels. The voltage is then stepped back to −50 mV for two sec to evoke a tail current prior to returning to the holding potential for 1 sec. The parameter measured was the amplitude of the 3rd pulse tail current upon stepping back to −50 mV after the step to +40 mV. Human HCN4 currents were evoked by a single pulse from a holding potential of −30 mV to a potential of −110 mV for 4 sec prior to returning to −30 mV. The parameter measured was the maximum inward current evoked upon stepping to −110 mV from the holding potential of −30 mV. Human Kir2.1 currents were evoked from a holding potential of −20 mV by a series of 10 500 msec pulses to −120 mV using a 200 msec interval between pulses. The parameters measured were the amplitudes of the instantaneous inward currents evoked on stepping to −120 mV for the 1st pulse and the maximum inward current at the end of the 10th hyperpolarizing pulse. For all experiments, data were filtered for seal quality, seal drop, and current amplitude."}, "[2]": {"molecular_target": "CYP2C8 (Homo sapiens, UniProt P10632)", "sequence (P10632 whole entry)": "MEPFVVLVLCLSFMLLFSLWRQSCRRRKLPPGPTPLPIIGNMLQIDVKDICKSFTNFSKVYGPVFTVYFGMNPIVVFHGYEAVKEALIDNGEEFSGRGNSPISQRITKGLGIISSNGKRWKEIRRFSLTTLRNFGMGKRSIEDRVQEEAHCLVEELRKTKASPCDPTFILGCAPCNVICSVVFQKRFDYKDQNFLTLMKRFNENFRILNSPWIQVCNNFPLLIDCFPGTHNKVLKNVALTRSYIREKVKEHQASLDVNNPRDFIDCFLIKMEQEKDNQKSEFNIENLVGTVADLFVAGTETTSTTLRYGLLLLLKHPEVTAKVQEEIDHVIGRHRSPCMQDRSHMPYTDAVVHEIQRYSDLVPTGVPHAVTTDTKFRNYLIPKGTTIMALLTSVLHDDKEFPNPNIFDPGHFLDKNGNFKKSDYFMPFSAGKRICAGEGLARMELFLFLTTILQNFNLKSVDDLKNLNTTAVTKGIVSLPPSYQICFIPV", "assay": "CYP inhibition in liver microsomes, CYP2C8", "format": "in vitro ADME", "conditions": "human liver microsomes 0.1 mg/mL", "experimental": "(§6) After addition of prototypical CYP substrates in 250 μL, samples were incubated for 10 min (CYP1A2, CYP2B6, CYP2C9, and CYP3A4) or 20 min (CYP2C8) at 37° C. in 5% CO2. […] Samples were analyzed for metabolite formation by LC-MS/MS. The results were expressed using the peak area ratio of analyte to internal standard, based on the calibration curves.\n(§7) where Range=fitted uninhibited value, s=slope factor, x=inhibitor concentration, y=% control activity."}, "[3]": {"assay": "Toxicity and toxicokinetics in rats, IV twice weekly for 29 d", "format": "in vivo, Sprague-Dawley rats", "conditions": "Sprague-Dawley, rat; for Cmax / AUC(0-t): plasma, iv, rats; for AUC(0-t): read-out: AUC0-24", "method": "(§1) Ninety-six male and female Sprague-Dawley rats (6-7 weeks old) were received from Charles River Laboratories, (Raleigh, N.C.) and catheterized via a femoral vein prior to arrival. Animals were acclimated in individual stainless-steel cages with access to water and Certified Rodent Diet #2014C (Envigo RMS) ad libitum for 6 d prior to study initiation. Environmental controls were set to maintain a temperature range of 20 to 26° C., a relative humidity range of 30 to 70%, eight or greater air changes/h, and a 12-h light/dark cycle. Animals were infused with sterile isotonic (0.9%) saline for a minimum of 4 d (0.20 mL/h for males or 0.15 mL/h for females) during the predose phase. At initiation of dosing, animals were 8 to 9 weeks old, and body weights ranged from 283 to 341 g for males and 188 to 238 g for females. Gamitrinib formulated as indicated above was administered by IV infusion on d […], 8, 11, 15, 18, 22, 25, and 29 of the dosing phase at 1, 10, 25 mg/kg/dose and dose volume of 5 mL/kg. The vehicle control administered with the same schedule contained 2.5% DMSO, 0.125% polysorbate 80, 0.031% lecithin, 1.25% sucrose and 4.375% dextrose. Animals were checked twice daily throughout the duration of the study for mortality, abnormalities, and signs of pain or distress. Detailed observations were conducted for each animal up to two times during the predose phase and for each toxicity animal prior to dosing on d 1, 8, 15, 22, and 29 of the dosing phase and on d 1, 7, and 14 of the recovery phase. Blood samples were collected on d. 1, 4 and 29 of the dosing phase 5 min, 1 h and 24 h post-dose, maintained on chilled cryoracks and centrifuged within 1 h of collection. Tissue samples harvested from each animal were embedded in paraffin, sectioned, and slides were prepared and stained with hematoxylin and eosin."}, "[4]": {"system": "Sprague-Dawley rats", "assay": "Toxicity and toxicokinetics in rats, IV twice weekly for 29 d", "format": "in vivo", "conditions": "for reduction in mean body weights: male rats", "method": "as §1"}, "[5]": {"molecular_target": "CYP2B6 (Homo sapiens, UniProt P20813)", "sequence (P20813 whole entry)": "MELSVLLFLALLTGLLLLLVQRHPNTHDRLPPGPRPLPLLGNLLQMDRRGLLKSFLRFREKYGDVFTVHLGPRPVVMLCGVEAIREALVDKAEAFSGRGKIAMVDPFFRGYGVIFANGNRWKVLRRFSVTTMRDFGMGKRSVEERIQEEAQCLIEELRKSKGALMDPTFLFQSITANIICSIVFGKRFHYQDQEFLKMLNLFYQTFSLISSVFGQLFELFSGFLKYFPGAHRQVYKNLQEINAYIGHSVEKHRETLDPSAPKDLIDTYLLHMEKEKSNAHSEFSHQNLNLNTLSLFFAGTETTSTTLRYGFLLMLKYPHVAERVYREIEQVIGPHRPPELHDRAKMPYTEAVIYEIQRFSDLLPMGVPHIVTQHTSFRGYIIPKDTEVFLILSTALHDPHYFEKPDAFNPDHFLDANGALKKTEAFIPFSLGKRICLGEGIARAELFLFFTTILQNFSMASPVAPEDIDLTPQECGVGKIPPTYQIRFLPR", "assay": "CYP inhibition in liver microsomes, CYP2B6", "format": "in vitro ADME", "conditions": "human liver microsomes 0.1 mg/mL", "experimental": "as §6, §7"}, "[6]": {"molecular_target": "Human Kv1.5 (Homo sapiens, UniProt P22460)", "sequence (P22460 whole entry)": "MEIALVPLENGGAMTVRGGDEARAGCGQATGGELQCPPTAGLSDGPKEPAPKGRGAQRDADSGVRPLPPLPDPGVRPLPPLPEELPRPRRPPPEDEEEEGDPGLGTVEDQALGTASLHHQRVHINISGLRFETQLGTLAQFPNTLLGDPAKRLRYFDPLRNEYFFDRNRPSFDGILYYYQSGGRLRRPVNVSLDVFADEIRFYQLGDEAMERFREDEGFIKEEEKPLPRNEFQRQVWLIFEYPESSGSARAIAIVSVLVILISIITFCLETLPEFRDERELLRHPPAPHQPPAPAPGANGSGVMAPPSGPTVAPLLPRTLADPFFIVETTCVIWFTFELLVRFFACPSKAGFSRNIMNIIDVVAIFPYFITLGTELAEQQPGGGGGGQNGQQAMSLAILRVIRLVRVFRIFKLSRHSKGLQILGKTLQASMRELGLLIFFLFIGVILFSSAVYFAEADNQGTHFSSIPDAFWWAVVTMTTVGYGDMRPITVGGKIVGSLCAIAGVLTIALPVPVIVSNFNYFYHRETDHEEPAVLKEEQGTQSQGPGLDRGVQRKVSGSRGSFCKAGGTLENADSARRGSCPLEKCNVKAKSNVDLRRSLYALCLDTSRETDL", "assay": "Ion channel screening, Kv1.5", "format": "cell-based", "conditions": "n=15, read-out: inhibition of Kv1.5 currents", "text": "(§8) The parameters measured were the maximum inward current evoked on stepping to −20 mV from the 1st and 26th pulse. Human Kv4.3/KChIP2 currents were evoked from a holding potential of −80 mV by a series of four 500 msec pulses to 0 mV using a 1000 msec interval between pulses. The parameter measured was the amplitude of the outward current 50 msec after the onset of the 4th voltage step to 0 mV. Human Cav1.2 currents were evoked by 2 pulses to −10 mV from a holding potential of −100 mV. The parameters measured were the maximum inward currents evoked on stepping to −10 mV from the holding potential of −100 mV for the 1st and 2nd pulse. Human Kv1.5 currents were evoked by a single pulse from a holding potential of −80 mV to a potential of 0 mV for 4 sec before returning to −80 mV. The parameters measured were the maximum amplitude of outward currents evoked at the beginning of the voltage pulse and at the end of the voltage step from −80 mV to 0 mV. Human KCNQ1/minK currents were evoked by a single pulse delivered from a holding potential of −80 mV to +60 mV for 4 sec before returning to −80 mV. The parameter measured was the maximum outward current evoked on stepping to +60 mV from the holding potential of −80 mV. hERG currents were evoked by a three-pulse protocol where voltage was first stepped to +40 mV for two sec from a holding potential of −80 mV to inactivate hERG channels. […]"}, "[7]": {"assay": "in vitro", "conditions": "human", "method": "(§2) Caco2 cells (2×10^4/well) were seeded onto apical chambers of a 24-multiwell insert plate and incubated at 37° C. in 5% CO2. After 21 d, the transepithelial electrical resistance (TEER) in ohms was read for each insert well as a quality control for monolayer integrity (>900 ohms or 300 ohms cm^2). The cell monolayers were incubated with 400 μL transport buffer on the apical (A) and 1.2 mL on the basolateral (B) sides for 30 min. After preincubation, dosing solution was added to the apical (400 μL, A-to-B, donor) or basolateral sides (1.2 mL, B-to-A, donor) or receiving buffer to the apical (400 μL, B-to-A, receiver) or basolateral sides (1.2 mL, A-to-B, receiver) for 90 min at 37° C. in 5% CO2. […] Papp·A>B (nm/s) was calculated with Equation 1.\n(§3) Papp Efflux Ratio (ER) was calculated with Equation 2.\n(§4) Propranolol (high permeability marker, non-P-gp substate) and digoxin (P-gp substrate) were used as controls."}, "[8]": {"system": "Caco2 intestinal cell monolayer", "assay": "in vitro", "conditions": "human, Caco-2, 90 min", "method": "as §2, §3, §4"}, "[9]": {"molecular_target": "Human HCN4 (Homo sapiens, UniProt Q9Y3Q4)", "sequence (Q9Y3Q4 whole entry)": "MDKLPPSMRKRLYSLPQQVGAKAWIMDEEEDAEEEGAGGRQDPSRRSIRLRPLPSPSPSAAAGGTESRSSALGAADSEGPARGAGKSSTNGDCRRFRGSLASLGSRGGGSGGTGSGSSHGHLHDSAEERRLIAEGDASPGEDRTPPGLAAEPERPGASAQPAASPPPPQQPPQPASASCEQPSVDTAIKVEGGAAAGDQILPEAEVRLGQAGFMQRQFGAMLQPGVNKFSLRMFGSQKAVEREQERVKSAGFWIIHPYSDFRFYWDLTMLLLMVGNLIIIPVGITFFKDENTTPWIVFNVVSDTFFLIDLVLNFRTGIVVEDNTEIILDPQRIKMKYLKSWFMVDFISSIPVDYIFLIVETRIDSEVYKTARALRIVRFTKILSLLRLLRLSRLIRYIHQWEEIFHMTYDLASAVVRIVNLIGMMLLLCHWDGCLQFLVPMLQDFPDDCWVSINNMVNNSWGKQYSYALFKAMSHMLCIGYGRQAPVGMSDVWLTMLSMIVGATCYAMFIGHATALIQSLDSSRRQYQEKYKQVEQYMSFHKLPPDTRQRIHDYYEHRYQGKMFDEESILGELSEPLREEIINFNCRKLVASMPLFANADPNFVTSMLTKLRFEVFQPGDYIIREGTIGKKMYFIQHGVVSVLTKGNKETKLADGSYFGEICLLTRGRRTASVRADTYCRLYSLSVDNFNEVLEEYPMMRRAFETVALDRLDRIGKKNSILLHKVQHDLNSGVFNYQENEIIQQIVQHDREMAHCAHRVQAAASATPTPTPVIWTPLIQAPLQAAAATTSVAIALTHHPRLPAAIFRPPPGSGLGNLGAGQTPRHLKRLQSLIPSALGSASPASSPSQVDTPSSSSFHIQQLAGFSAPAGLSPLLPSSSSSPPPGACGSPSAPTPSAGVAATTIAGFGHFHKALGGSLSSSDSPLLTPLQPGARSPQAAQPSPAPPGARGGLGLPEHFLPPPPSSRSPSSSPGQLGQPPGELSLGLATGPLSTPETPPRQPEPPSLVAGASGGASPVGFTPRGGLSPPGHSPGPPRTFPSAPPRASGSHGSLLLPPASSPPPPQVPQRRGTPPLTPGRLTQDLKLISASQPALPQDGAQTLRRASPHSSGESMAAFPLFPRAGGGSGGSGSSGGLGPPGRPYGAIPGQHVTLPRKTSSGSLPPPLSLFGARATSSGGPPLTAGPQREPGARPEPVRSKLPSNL", "assay": "Ion channel screening, HCN4", "format": "cell-based", "conditions": "n=16, read-out: inhibition of HCN4 currents", "text": "as §5"}, "[10]": {"assay": "Stability in human plasma", "format": "in vitro ADME"}, "[11]": {"system": "breast adenocarcinoma cell lines", "conditions": "breast adenocarcinoma lines of NCI 60 screen; read-out: IC50 anticancer activity; cited from earlier work"}, "[12]": {"assay": "Stability and particle size distribution of Gamitrinib Injectable Suspension (GIS)", "format": "physicochemical", "method": "A sequential three-step process was utilized to prepare Good Laboratory Practice (GLP) working solutions of Gamitrinib (5 mg/mL) for preclinical studies. The formulation workflow is as follows: Step 1—Solubilization of Gamitrinib powder in DMSO (2.5%); […] Step 3—Dilution in 5% dextrose (87.5%). […] For Good Manufacturing Practice (GMP) studies, a Gamitrinib Injectable Suspension (GIS) was prepared by microfluidization. Gamitrinib stock solutions prepared as above were passed through a microfluidizer (Dyhydromatics, Acton, Mass.) with rate of flow set at low, medium, and high. At the end of GIS processing, microfluidization was continued at reduced pressure (2000 psi) for 1-2 min. […] Gamitrinib is formulated using a three-step dilution process described in the Materials and Methods section. A sterile, Gamitrinib Injectable Suspension (GIS) is prepared for clinical use using microfluidization with the schematic flowchart shown in FIG. 5B."}, "[13]": {"molecular_target": "KCNQ1/minK (Homo sapiens, UniProt P51787)", "assay": "Ion channel screening, KCNQ1/minK", "format": "cell-based", "conditions": "n=16, read-out: inhibition of KCNQ1/mink currents", "text": "as §8"}, "[14]": {"conditions": "1 mg/kg/dose (NOAEL), d 29 of dosing"}},
  "note": "“Also recorded” adds a separate entry of the source. Read-outs that look alike come from different tables or passages of the source.",
  "data": [
    {"compound": "CO[C@H]1/C=C\\C=C(/C)C(=O)NC2=CC(=O)C(NCCCCCC[P+](c3ccccc3)(c3ccccc3)c3ccccc3)=C(C[C@@H](C)C[C@H](OC)[C@H](O)[C@@H](C)/C=C(\\C)[C@@H]1OC(N)=O)C2=O", "note": "[Gamitrinib, 17-Demethoxy-17-((6-(triphenylphosphonio)hexyl)amino)geldanamycin]", "values": [
      {"measurement": "inhibition at 10 µM", "setting": "[1]", "result": "-7.3 ± 3.4", "unit": "%"},
      {"measurement": "IC50", "setting": "[2]", "result": 8, "unit": "µM"},
      {"measurement": "Cmax", "setting": "[3]; [14]", "result": 0.0871, "unit": "µg/mL"},
      {"measurement": "AUC(0-t)", "setting": "[3]; [14]", "result": 0.174, "unit": "µg·h/mL"},
      {"measurement": "Cmax", "setting": "[3]; 10 mg/kg/dose (STD 10), d 29", "result": 0.311, "unit": "µg/mL"},
      {"measurement": "AUC(0-t)", "setting": "[3]; 10 mg/kg/dose (STD 10), d 29", "result": 1.3, "unit": "µg·h/mL"},
      {"measurement": "Vd", "setting": "[3]; both sexes, in vivo, rats, 1, 10 or 25 mg/kg/dose IV twice weekly, d 4 and d 29, read-out: Vss", "result": "12.2 to 90", "unit": "L/kg"},
      {"measurement": "reduction in mean body weights", "setting": "[4]; 10 mg/kg/dose IV twice weekly", "result": "−5.5", "unit": "%"},
      {"measurement": "reduction in mean body weights", "setting": "[4]; 25 mg/kg/dose IV twice weekly", "result": "−5.7", "unit": "%"},
      {"measurement": "urinalysis or ophthalmic changes", "setting": "[4]; rats", "result": "No effects"},
      {"measurement": "Gamitrinib-related clinical observations", "setting": "[4]; rats administered 10 mg/kg/dose", "result": "inguinal swelling, piloerection, hypoactivity, and sensitivity to touch at the infusion site"},
      {"measurement": "microscopic findings at the infusion site", "setting": "[4]; rats administered 10 mg/kg/dose (both sexes)", "result": "mixed cell inflammation at the catheter/infusion site"},
      {"measurement": "kidney histology", "setting": "[4]; rats, 25 mg/kg/dose IV, 25 mg/kg", "result": "slight kidney tubule degeneration/regeneration; also recorded: marked kidney tubule degeneration/regeneration; also recorded: tubular degeneration/regeneration"},
      {"measurement": "serum urea nitrogen (UN) and creatinine concentrations", "setting": "[4]; rats, 25 mg/kg/dose, 25 mg/kg", "result": "Minimally to mildly higher; also recorded: mild elevation of urea nitrogen"},
      {"measurement": "serum urea nitrogen", "setting": "[4]; rats, >10 mg/kg/dose", "result": "mild elevation"},
      {"measurement": "no observed adverse effect level (NOAEL)", "setting": "[4]; rats, IV twice weekly 29 d", "result": 1, "unit": "mg/kg/dose"},
      {"measurement": "severely toxic dose in 10% of the animals (STD 10)", "setting": "[4]; rats, IV twice weekly 29 d", "result": 10, "unit": "mg/kg/dose"},
      {"measurement": "Alterations in clinical chemistry parameters", "setting": "[4]; rats, highest Gamitrinib dose level tested", "result": "mildly to moderately higher neutrophil and platelet (Plts) counts, minimally prolonged partial thromboplastin time (PT), lower albumin, higher globulin, and alkaline phosphatase concentrations"},
      {"measurement": "drug accumulation", "setting": "[4]; rats, Cmax and AUC0-24 similar on d 4 and d 29", "result": "no drug accumulation after multiple doses"},
      {"measurement": "Gamitrinib-related mortality", "setting": "[4]; toxicity rats, 10 mg/kg/dose", "result": "one male"},
      {"measurement": "Gamitrinib-related mortality", "setting": "[4]; toxicity rats, 25 mg/kg/dose", "result": "two males and one female"},
      {"measurement": "Gamitrinib-related mortality", "setting": "[4]; toxicokinetic rats, 10 mg/kg/dose", "result": "two toxicokinetic females"},
      {"measurement": "Gamitrinib-related mortality", "setting": "[4]; toxicokinetic rats, 25 mg/kg/dose", "result": "one toxicokinetic female"},
      {"measurement": "IC50", "setting": "[5]", "result": 16, "unit": "µM"},
      {"measurement": "inhibition at 10 µM", "setting": "[6]", "result": "6.6 ± 1.3", "unit": "%"},
      {"measurement": "Papp B→A at 90 min", "setting": "[7]; Caco-2", "result": 10.9, "unit": "nm/s"},
      {"measurement": "efflux ratio at 90 min", "setting": "[7]; Caco-2, Papp Efflux Ratio (ER)", "result": 5.77},
      {"measurement": "Papp A→B at 90 min", "setting": "[7]; Caco-2, Papp", "result": 1.9, "unit": "nm/s"},
      {"measurement": "efflux ratio at 90 min", "setting": "[7]; Caco-2, Pexact Efflux Ratio", "result": 5.54},
      {"measurement": "Papp A→B at 90 min", "setting": "[7]; Caco-2, Pexact", "result": 1.97, "unit": "nm/s"},
      {"measurement": "Pexact, B > A", "setting": "[8]", "result": 10.92, "unit": "nm/s"},
      {"measurement": "inhibition at 10 µM", "setting": "[9]", "result": "-0.2 ± 3.7", "unit": "%"},
      {"measurement": "recovery", "setting": "[10]", "result": "82.8 ± 3", "unit": "%"},
      {"measurement": "stability in human plasma", "setting": "[10]", "result": 91.4, "unit": "%"},
      {"measurement": "IC50", "setting": "[11]", "result": "0.16 to 3.3", "unit": "µM"},
      {"measurement": "stable (time of storage)", "setting": "[12]; injectable suspension at −20° C.", "result": "≥ 24", "unit": "weeks"},
      {"measurement": "particle size", "setting": "[12]; injectable suspension produced by microfluidization", "result": "< 200", "unit": "nm"},
      {"measurement": "inhibition at 10 µM", "setting": "[13]", "result": "22.5 ± 1.1", "unit": "%"}
    ]}
  ]
}
